US20240245705A1, “ORALLY ADMINISTERED COMBINATIONS OF AMOXICILLIN AND AVIBACTAM DERIVATIVES FOR TREATING MYCOBACTERIAL INFECTIONS” (Arixa Pharmaceuticals, Inc., priority 2019, published 2024)
Counter-ions that a name gives are not always drawn.

How the values were obtained:
[1] = Avibactam oral bioavailability in humans; type: in vivo; conditions: human patients, oral avibactam derivative
From the text: Avibactam derivatives, when orally administered, provide an enhanced oral bioavailability of the β-lactamase inhibitor compared to the oral bioavailability of the parent β-lactamase inhibitor. […] The oral bioavailability of avibactam in a human is about 7%.

[2] = Single ascending dose phase 1 study: pharmacokinetics of avibactam after oral avibactam derivative (3) in healthy human volunteers; type: in vivo; conditions: following oral administration of avibactam derivative (3)
Method: The pharmacokinetics of avibactam provided as an orally administered avibactam derivative was determined on healthy human volunteers.
A randomized, double-blind, placebo-controlled single ascending dose phase 1 study was undertaken with healthy male and female adults. Three cohorts, each comprising 10 patients received a single oral dose of 300 mg, 900 mg, or 1,350 mg avibactam derivative (3) (ethyl 3-(((((1R,2S,5R)-2-carbamoyl-7-oxo-1,6-diazabicyclo[3.2.1]octan-6-yl)oxy)sulfonyl)oxy)-2,2-dimethylpropanoate) under fed conditions as a suspension of 10 mg/mL (n=8) or placebo (n−2).
Plasma and urine PK samples were collected prior to dosing and at frequent intervals after dosing.

[3] = human, avibactam itself given orally; cited from earlier work

Structure (SMILES)	avibactam oral bioavailability [1]	clearance of avibactam in the systemic compartment [2]	oral bioavailability of avibactam [3]
CCOC(=O)C(C)(C)COS(=O)(=O)ON1C(=O)N2C[C@H]1CC[C@H]2C(N)=O [avibactam derivative (3), ethyl 3-(((((1R,2S,5R)-2-carbamoyl-7-oxo-1,6-diazabicyclo[3.2.1]octan-6-yl)oxy)sulfonyl)oxy)-2,2-dimethylpropanoate]	greater than 50 % F	rapid clearance	
NC(=O)[C@@H]1CC[C@@H]2CN1C(=O)N2OS(=O)(=O)O [avibactam, [2S,5R]-2-carbamoyl-7-oxo-1,6-diazabicyclo[3.2.1]octan-6-yl hydrogen sulfate]			about 7%
